Columns and labels:
Ole1 = target: T1, Ole1 (Saccharomyces cerevisiae, UniProt P21147); assay: Growth inhibition of yeast strain expressing Ole1 as sole desaturase; format: cell-based; conditions: yeast strain expressing Ole1 as sole desaturase
T1 construct: expressed in transfected cells; host or cells: S. cerevisiae ole1Δ strain (W303 pdr1Δ pdr3Δ background), plasmid pRS316 with TDH3 promoter and CYC1 terminator
T1 sequence (P21147 1-510): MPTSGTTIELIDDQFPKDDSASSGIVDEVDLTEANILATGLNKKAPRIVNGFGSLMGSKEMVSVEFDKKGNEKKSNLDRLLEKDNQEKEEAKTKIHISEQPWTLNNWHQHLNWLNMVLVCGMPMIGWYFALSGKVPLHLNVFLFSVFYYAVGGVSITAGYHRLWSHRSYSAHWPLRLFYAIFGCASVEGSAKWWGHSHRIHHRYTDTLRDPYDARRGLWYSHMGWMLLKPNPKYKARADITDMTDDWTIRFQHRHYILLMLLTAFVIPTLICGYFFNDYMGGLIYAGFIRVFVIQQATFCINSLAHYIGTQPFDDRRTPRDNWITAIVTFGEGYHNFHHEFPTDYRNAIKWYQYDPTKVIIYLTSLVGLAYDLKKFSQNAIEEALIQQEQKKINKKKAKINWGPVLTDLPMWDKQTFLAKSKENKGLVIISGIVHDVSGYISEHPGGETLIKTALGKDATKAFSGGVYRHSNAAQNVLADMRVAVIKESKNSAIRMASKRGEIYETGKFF
Method in brief: (§1)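 ole1Δ yeast (W303 pdr1Δ pdr3Δ background) carrying plasmid-borne Ole1, SCD1 or SCD5, grown in uracil-free media; cultures pre-grown in raffinose, seeded at 2× density 0.02 in galactose media with compound. Growth read as OD600 after 24 h at 30° C. for Ole1, 40 h for SCD1/SCD5.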

SCD1 = target: T2, SCD1 (Homo sapiens, UniProt O00767); assay: Growth inhibition of humanized yeast strain expressing SCD1 as sole desaturase; format: cell-based; conditions: humanized yeast strain expressing SCD1
T2 construct: host or cells: S. cerevisiae ole1Δ strain (W303 pdr1Δ pdr3Δ background), plasmid pRS316 with TDH3 promoter and CYC1 terminator
T2 sequence (O00767 1-359): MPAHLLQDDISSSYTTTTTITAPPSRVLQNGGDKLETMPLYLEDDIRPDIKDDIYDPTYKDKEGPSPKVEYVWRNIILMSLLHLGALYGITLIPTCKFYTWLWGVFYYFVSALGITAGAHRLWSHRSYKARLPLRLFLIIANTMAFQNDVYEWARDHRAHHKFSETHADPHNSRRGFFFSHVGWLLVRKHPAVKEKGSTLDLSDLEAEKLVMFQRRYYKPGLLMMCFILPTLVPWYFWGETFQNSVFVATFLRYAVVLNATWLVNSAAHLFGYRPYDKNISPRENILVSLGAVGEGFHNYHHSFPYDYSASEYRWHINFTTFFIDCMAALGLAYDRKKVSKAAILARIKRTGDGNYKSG
Method in brief: as §1

SCD5 = target: T3, SCD5 (Homo sapiens, UniProt Q86SK9); assay: Growth inhibition of humanized yeast strain expressing SCD5 as sole desaturase; format: cell-based; conditions: humanized yeast strain expressing SCD5
T3 construct: host or cells: S. cerevisiae ole1Δ strain (W303 pdr1Δ pdr3Δ background), plasmid pRS316 with TDH3 promoter and CYC1 terminator
T3 sequence (Q86SK9 1-330): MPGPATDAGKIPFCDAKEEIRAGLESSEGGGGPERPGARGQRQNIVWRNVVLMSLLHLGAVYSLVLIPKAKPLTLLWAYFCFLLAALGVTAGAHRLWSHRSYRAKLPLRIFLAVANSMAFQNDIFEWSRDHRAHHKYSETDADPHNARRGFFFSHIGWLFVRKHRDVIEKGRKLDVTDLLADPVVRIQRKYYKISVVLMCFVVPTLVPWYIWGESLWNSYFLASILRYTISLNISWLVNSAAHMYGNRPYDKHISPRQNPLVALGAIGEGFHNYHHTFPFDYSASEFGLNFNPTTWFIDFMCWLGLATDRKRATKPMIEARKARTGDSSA
Method in brief: as §1

[1] = test system: yeast strains expressing the human α-synuclein; assay: Yeast α-synuclein toxicity rescue assay (OD600 growth); conditions: 40 h; for EC50: read-out: α-Syn EC50; for Emax: read-out: α-Syn Emax

SMILES	IC50 (Ole1)	OLE1 % Max Inhibition (Ole1)	IC50 (SCD1)	SCD1 % Max Inhibition (SCD1)	IC50 (SCD5)	SCD5 % Max Inhibition (SCD5)	EC50 [1]	Emax [1]
COc1ccc(-c2noc(C3CCN(C(=O)CNC(=O)C(C)C)CC3)n2)cc1OC [Compound 47]	> 45 µM	109.20%	> 45 µM	73.30%	> 45 µM	74.25%	16.5 µM	88%
CCN1C(=O)COc2cc(-c3noc(C4CCN(C(=O)CNC(=O)c5ccccc5)CC4)n3)ccc21 [Compound 111]	> 45 µM	38.26%	> 45 µM	76.39%	> 45 µM	32.73%	0.339 µM	289%
Cc1nn(C)c2ccc(-c3noc(C4CCN(C(=O)CNC(=O)c5ccccc5)CC4)n3)cc12 [Compound 95]	> 45 µM		39.2 µM		> 45 µM		0.091 µM	827%
CCOc1cnc(-c2noc(C3CCN(C(=O)CNC(=O)c4ccccc4)CC3)n2)cc1OC [Compound 121]	> 45 µM	111.12%	> 45 µM	94.06%	> 45 µM	98.38%	15.5 µM	388%
COc1ccc(C(=O)NCC(=O)N2CCC(c3nc(-c4ccc5c(C)nn(C)c5c4)no3)CC2)nc1 [Compound 151]	> 45 µM	2.67%	> 45 µM	75.63%	> 45 µM	20.68%	0.045 µM	405%
COc1ccccc1-c1noc(C2CCN(C(=O)CNC(=O)c3ccc(C)c(C)c3)CC2)n1 [Compound 58]	> 45 µM	92.35%	> 45 µM	101.47%	> 45 µM	66.93%	7.94 µM	23%
Cc1nn(C)c2ccc(-c3noc(C4CCN(C(=O)N5CCCCC5)CC4)n3)cc12 [Compound 117]	> 45 µM	92.97%	> 45 µM	95.94%	36.1 µM	54.63%	7.5 µM	124%
Cc1nn(C)c2cc(-c3noc(C4CCN(C(=O)[C@@H]5CN(c6ccccc6)C(=O)O5)CC4)n3)ccc12 [Compound 149]	> 45 µM	90.68%	> 45 µM	69.75%	> 45 µM	38.72%	0.06 µM	458%
Cc1noc2cc(-c3noc(C4CCN(C(=O)CNC(=O)c5ccccc5)CC4)n3)ccc12 [Compound 135]	> 45 µM	99.53%	> 45 µM	92.42%	> 45 µM	91.64%	0.593 µM	144%
CCOc1ccc(-c2noc(C3CCN(C(=O)[C@H]4CC[C@H](c5ccccc5)N4)CC3)n2)cc1OC [Compound 119]	> 45 µM	111.86%	> 45 µM	86.22%	> 45 µM	93.93%	20.9 µM	61%
COc1ccc(-c2noc(C3CCN(C(=O)CNC(=O)c4ccccn4)CC3)n2)cc1OC [Compound 145]	15.8 µM	51.17%	> 45 µM	78.31%	> 45 µM	86.51%	0.1 µM	432%
Cc1nn(C)c2nc(-c3noc(C4CCN(C(=O)CNC(=O)c5ccccc5)CC4)n3)ccc12 [Compound 115]	> 45 µM	101.68%	> 45 µM	77.36%	> 45 µM	77.85%	0.887 µM	326%
Cc1nn(C)c2cc(-c3noc(C4CCN(C(=O)CNC(=O)c5ccccn5)CC4)n3)ccc12 [Compound 153]	> 45 µM	2.75%	> 45 µM	75.76%	> 45 µM	87.51%	0.02 µM	271%
CCOc1ncc(-c2noc(C3CCN(C(=O)CNC(=O)c4ccccc4)CC3)n2)cc1OC [Compound 132]	> 45 µM	7.45%	> 45 µM	115.10%	> 45 µM	94.34%	1.01 µM	253%
Cc1ccc(-c2noc(C3CCN(C(=O)C4CC(=O)N(c5ccc(C)c(C)c5)C4)CC3)n2)cc1 (stereo not shown) [compound 2]	> 45 µM		> 45 µM		> 45 µM		8.57 µM	80%
Cn1c(=O)[nH]c2ccc(-c3noc(C4CCN(C(=O)C5CC(=O)N(c6ccccc6)C5)CC4)n3)cc21 (stereo not shown) [Compound 134]	> 45 µM	93.94%	> 45 µM	107.77%	> 45 µM	98.55%	14 µM	357%
COc1ccc(-c2noc(C3CCN(C(=O)CNC(=O)c4ccccc4OC)CC3)n2)cc1OC [Compound 144]	> 45 µM	100.96%	> 45 µM	79.00%	> 45 µM	84.27%	0.521 µM	537%

Reference: patent US11873298B2, “Compounds and uses thereof” (JANSSEN PHARMACEUTICA NV, priority 2017, dated 2024)
